Source: ChEMBL document CHEMBL3886646, “Cyclohexylamine derivatives having β2 adrenergic agonist and M3 muscarinic antagonist activities” (2016)

Molecular target: Beta-2 adrenergic receptor (Homo sapiens, UniProt P07550)
Assay: Adrenergic Receptor Binding Assay: The study of binding to human adrenergic beta1 and beta2 receptors was performed using commercial membranes prepared from Sf9 cells where they are overexpressed (Perkin Elmer). The membrane suspensions (16 μg/well for beta1 and 5 μg/well for beta2) in assay buffer (75 mM Tris/HCl with 12.5 mM MgCl2 and 2 mM EDTA pH=7.4) were incubated with 0.14 or 0.6 nM of 3H-CGP12177 (Amersham) for beta 1 and beta 2 receptors respectively in a final volume of 250 μl, in GFC Multiscreen 96 well plates (Millipore) previously treated with assay buffer containing 0.3% PEI (Sigma). Non specific binding was measured in the presence of 1 μM propanolol. Incubation was maintained for 60 minutes at room temperature and with gentle shaking. The binding reactions were terminated by filtration and washing with 2.5 volumes of Tris/HCl 50 mM pH=7.4.
Assay type: cell membranes

Sequence of Beta-2 adrenergic receptor (P07550 whole entry): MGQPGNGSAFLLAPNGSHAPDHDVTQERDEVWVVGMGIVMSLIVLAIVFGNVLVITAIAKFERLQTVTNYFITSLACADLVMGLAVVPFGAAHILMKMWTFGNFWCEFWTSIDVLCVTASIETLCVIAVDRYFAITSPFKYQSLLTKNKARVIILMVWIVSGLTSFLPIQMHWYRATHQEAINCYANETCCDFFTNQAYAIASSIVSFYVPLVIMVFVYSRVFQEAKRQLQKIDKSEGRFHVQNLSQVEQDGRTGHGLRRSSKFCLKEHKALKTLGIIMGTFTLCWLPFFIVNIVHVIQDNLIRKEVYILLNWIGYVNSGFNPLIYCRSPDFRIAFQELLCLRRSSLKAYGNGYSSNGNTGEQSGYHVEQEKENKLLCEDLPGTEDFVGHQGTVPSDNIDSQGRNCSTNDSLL

SMILES	IC50 [nM]
CN(CCOc1ccc(CCNC[C@H](O)c2ccc(O)c3[nH]c(=O)ccc23)cc1)C1CCC(OC(=O)C(O)(c2cccs2)c2cccs2)CC1 (stereo partly specified)	36
CN(CCC(=O)Nc1ccc(CNC[C@H](O)c2ccc(O)c3[nH]c(=O)ccc23)cc1Cl)[C@H]1CC[C@H](OC(=O)C(O)(c2cccs2)c2cccs2)CC1	6.7
COc1cc(NC(=O)CCN(C)[C@H]2CC[C@H](OC(=O)C(O)(c3cccs3)c3cccs3)CC2)c(Cl)cc1CNC[C@H](O)c1ccc(O)c2[nH]c(=O)ccc12	8.5

Molecular target: Muscarinic acetylcholine receptor M3 (Homo sapiens, UniProt P20309)
Sequence (P20309 whole entry): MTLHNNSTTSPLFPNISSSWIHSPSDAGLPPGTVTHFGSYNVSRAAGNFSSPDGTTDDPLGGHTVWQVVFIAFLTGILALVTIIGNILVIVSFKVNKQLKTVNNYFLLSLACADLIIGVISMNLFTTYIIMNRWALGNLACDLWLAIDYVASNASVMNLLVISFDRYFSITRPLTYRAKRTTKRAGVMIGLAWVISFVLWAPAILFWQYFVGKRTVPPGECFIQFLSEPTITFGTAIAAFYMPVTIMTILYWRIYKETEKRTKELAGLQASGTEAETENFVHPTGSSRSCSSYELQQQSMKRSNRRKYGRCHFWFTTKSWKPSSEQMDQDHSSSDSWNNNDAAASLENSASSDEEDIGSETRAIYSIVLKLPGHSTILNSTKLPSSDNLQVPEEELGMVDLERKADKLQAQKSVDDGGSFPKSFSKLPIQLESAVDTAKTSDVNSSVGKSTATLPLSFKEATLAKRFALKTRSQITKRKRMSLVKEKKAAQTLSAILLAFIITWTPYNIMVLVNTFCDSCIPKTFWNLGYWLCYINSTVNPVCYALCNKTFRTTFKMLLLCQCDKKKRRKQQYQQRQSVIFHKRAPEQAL
Assay: Muscarinic Receptor Binding Assay: The study of binding to human muscarinic M1, M2, M3, M4 and M5 receptors was performed using commercial membranes (Perkin Elmer) prepared from CHO-K1 cells. Radioligand binding experiments were conducted in 96 polypropylene well plates in a total volume of 200 μl. All reagents were dissolved in assay binding buffer (PBS with calcium and magnesium, SIGMA), except compounds that were dissolved in DMSO 100%. Non-specific binding (NSB) was measured in the presence of 1 μM atropine. [3H]-NMS was used as the radioligand at a concentration of 1 nM for M2, M3 and M5 and 0.3 nM for M1 and M4. [3H]-NMS and antagonists were incubated with membranes that express human muscarinic receptors M1, M2, M3, M4 and M5 at concentrations of 8.1, 10, 4.9, 4.5 and 4.9 μg/well, respectively. After an incubation period of two hours with gentle shaking, 150 μl of the reaction mix were transferred to 96 GF/C filter plates (Millipore), previously treated with wash buffer (Tris 50 mM; NaCl 100 mM; pH: 7.4), containing 0.05% PEI (Sigma) during one hour. Bound and free [3H]-NMS were separated by rapid vacuum filtration in a manifold from Millipore and washed four times with ice cold wash buffer. After drying 30 min, 30 μl of OPTIPHASE Supermix were added to each well and radioactivity quantified using a Microbeta microplate scintillation counter.
Assay type: cell-based

SMILES	IC50 [nM]
CN(CCOc1ccc(CCNC[C@H](O)c2ccc(O)c3[nH]c(=O)ccc23)cc1)C1CCC(OC(=O)C(O)(c2cccs2)c2cccs2)CC1 (stereo partly specified)	1.3
CN(CCC(=O)Nc1ccc(CNC[C@H](O)c2ccc(O)c3[nH]c(=O)ccc23)cc1Cl)[C@H]1CC[C@H](OC(=O)C(O)(c2cccs2)c2cccs2)CC1	2.2
COc1cc(NC(=O)CCN(C)[C@H]2CC[C@H](OC(=O)C(O)(c3cccs3)c3cccs3)CC2)c(Cl)cc1CNC[C@H](O)c1ccc(O)c2[nH]c(=O)ccc12	1.1
